Legend:
[1] = target: PI 3-kinase delta (Homo sapiens (Human), UniProt O00329); assay: TR-FRET Adapta assay (Assay F); type: biochemical; conditions: read-out: Assay F PI3Kδ IC50
Text: TR-FRET Adapta Assay for PI 3-Kinase Gamma (E), PI 3-Kinase Delta (F)
The TR-FRET Adapta™ Universal Kinase Assay Kit was purchased from Invitrogen Corporation (Carlsbad/CA, USA) (Cat. No. PV5099). The kit contains the following reagents: Adapta Eu-anti-ADP Antibody (Europium labeled anti-ADP antibody in HEPES buffered saline, Cat. No. PV5097), Alexa Fluor® 647-labeled ADP tracer (Alexa Fluor® 647-labeled ADP tracer in HEPES buffered saline, Cat. No. PV5098), TR-FRET dilution buffer pH 7.5 (Cat. No. PV3574). PIK3CD substrate phosphatidylinositol (PI) was obtained from Invitrogen (vesicules consisting of 2 mM phosphatidylinositol (PI) in 50 mM HEPES pH7.5; Cat. No. PV5371). PIK3CG substrate phosphatidylinositol-4,5-bisphosphate (PIP(4,5)2 was obtained from Invitrogen (PIP2:PS large unilamellar vesicules consisting of 1 mM PIP2: 19 mM PS in 50 mM HEPES pH7.5, 3 mM MgCl2, 1 mM EGTA; Cat. No. PV5100).
Time-Resolved Fluorescence Resonance Energy Transfer (TR-FRET) is a technology based on energy transfer between two adjacent dyes, from an excited electron in one dye (the donor) to an electron of an adjacent dye (the acceptor) through resonance, then released as a photon. This energy transfer is detected by an increase in the fluorescence emission of the acceptor, and a decrease in the fluorescence emission of the donor. TR-FRET assays for protein kinases use a long-lifetime lanthanide Terbium or Europium chelates as the donor species which overcome interference from compound autofluorescence or light scatter from precipitated compounds, by introducing a delay after excitation by a flashlamp excitation source. Results are often expressed as a ratio of the intensities of the acceptor and donor fluorophores. The ratiometric nature of such a value corrects for differences in assay volumes between wells, as well as corrects for quenching effects due to colored compounds. The Adapta™ assay can be divided into two phases: a kinase reaction phase and an ADP detection phase. In the kinase reaction phase, all kinase reaction components are added to the well and the reaction is allowed to incubate for a set period of time specific for each kinase. After the reaction, a detection solution of Eu-labeled anti-ADP antibody, Alexa Fluor® 647-labeled ADP tracer, and EDTA (to stop the kinase reaction) are added to the assay well. ADP formed by the kinase reaction will displace the Alexa Fluor® 647-labeled ADP tracer from the antibody, resulting in a decrease in TR-FRET signal. In the presence of an inhibitor, the amount of ADP formed by the kinase reaction is reduced, and the resulting intact antibodytracer interaction maintains a high TR-FRET signal. In the Adapta™ assay, the donor (Europium-anti-ADP antibody) is excited at 340 nm and will transfer its energy to the acceptor (Alexa Fluor® 647-labeled ADP tracer). The emission from the Alexa Fluor® 647 can be monitored with a filter centered at 665 nm because it is located between the emission peaks of the donor, which is measured at 615/620 nm. 50 nL of compound dilutions were dispensed onto white 384-well small volume polystyrene plate. Then 5 μL of either PI 3-kinase gamma or PI 3-kinase delta and lipid substrate (P1 or PIP2:PS) followed by 5 μL of ATP (final assay volume 10 μL) are incubated at RT. The standard reaction buffer for the Adapta™ TR-FRET assay contained 10 mM Tris-HCl pH 7.5, 3 mM MgCl2, 50 mM NaCl, 1 mM DTT, 0.05% CHAPS ((3-[(3-cholamidopropyl)dimethylammonio]-1-propanesulfonate). Reactions were stopped with 5 μL of a mixture of EDTA containing the Eu-labeled anti-ADP antibody and the Alexa Fluor® 647-labeled ADP tracer in TR-FRET dilution buffer. Plates are read 15 to 60 mins later in a Synergy2 reader using an integration time of 0.4 seconds and a delay of 0.05 seconds. Control for the 100% inhibition of the kinase reaction was performed by replacing the PI 3-kinase by the standard reaction buffer. […]

[2] = target: mTOR (Homo sapiens (Human), UniProt P42345); assay: Lanthascreen kinase binding assay (Assay G); conditions: GST-mTOR, Tracer-314
Text: Lanthascreen™ Kinase Binding Assay for mTOR (G)
Binding Assays are based on the binding and displacement of an Alexa Fluor® 647-labeled, ATP-competitive kinase inhibitors to the kinase of interest. Invitrogen's “Kinase Tracers” have been developed to address a wide range of kinase targets and are based on ATP-competitive kinase inhibitors, making them suitable for detection of any compounds that bind to the ATP site or to an allosteric site altering the conformation of the ATP site.
In the Lanthascreen™ kinase binding assay, the donor (Eu^3+-anti-GST (glutathione 5-transferase) antibody) is excited at 340 nm and will transfer its energy to the acceptor (Alexa Fluor® 647-labeled ATP-competitive kinase inhibitor=Tracer-314). The emission from the Tracer-314 (Alexa Fluor® 647 inhibitor) can be monitored with a filter centered at 665 nm because it is located between the emission peaks of the donor, which is measured at 615/620 nm. The binding of both, the Tracer-314 and Eu^3+-anti-GST antibody, to the kinase results in a high degree of FRET from the Eu^3+-donor fluorophore to the Alexa-Fluor® 647-acceptor fluorophore on the Tracer-314. Binding of an inhibitor to the kinase competes for binding with the tracer, resulting in a loss of FRET.
50 nL of compound dilutions were dispensed onto white 384-well small volume polystyrene plate. Then 5 μL of GST-mTOR and Europium-anti-GST antibody followed by 5 μL of tracer-314 (final assay volume 10 μL) are incubated at RT. The standard reaction buffer for the Lanthascreen™ kinase binding assay contained 50 mM HEPES pH 7.5, 5 mM MgCl2, 1 mM EGTA, 0.01% Pluronic F-127. Plates are read 60 mins later in a Synergy2 reader using an integration time of 0.2 microseconds and a delay of 0.1 microseconds.
To calculate the emission ratio, the signal emitted at 665 nm from the acceptor (Alexa Fluor® 647-labeled Tracer-314) is divided by the signal emitted at 620 nm from the donor (Eu^3+ anti-GST antibody).
Control for the 0% inhibition was given by the solvent vehicle of the compounds (90% DMSO in H2O). Control for the relative 100% inhibition was performed by adding 10 μM in the mix containing GST-mTOR and Europium anti-GST antibody. An additional control for the absolute 0% inhibition is given by Eu^3+ anti-GST antibody without GST-mTOR. Standard compounds for the lipid kinase panel profiling were used as a reference and included in all assay plates in the form of 8 dilution points.

Sequence of PI 3-kinase delta (O00329 2-1044): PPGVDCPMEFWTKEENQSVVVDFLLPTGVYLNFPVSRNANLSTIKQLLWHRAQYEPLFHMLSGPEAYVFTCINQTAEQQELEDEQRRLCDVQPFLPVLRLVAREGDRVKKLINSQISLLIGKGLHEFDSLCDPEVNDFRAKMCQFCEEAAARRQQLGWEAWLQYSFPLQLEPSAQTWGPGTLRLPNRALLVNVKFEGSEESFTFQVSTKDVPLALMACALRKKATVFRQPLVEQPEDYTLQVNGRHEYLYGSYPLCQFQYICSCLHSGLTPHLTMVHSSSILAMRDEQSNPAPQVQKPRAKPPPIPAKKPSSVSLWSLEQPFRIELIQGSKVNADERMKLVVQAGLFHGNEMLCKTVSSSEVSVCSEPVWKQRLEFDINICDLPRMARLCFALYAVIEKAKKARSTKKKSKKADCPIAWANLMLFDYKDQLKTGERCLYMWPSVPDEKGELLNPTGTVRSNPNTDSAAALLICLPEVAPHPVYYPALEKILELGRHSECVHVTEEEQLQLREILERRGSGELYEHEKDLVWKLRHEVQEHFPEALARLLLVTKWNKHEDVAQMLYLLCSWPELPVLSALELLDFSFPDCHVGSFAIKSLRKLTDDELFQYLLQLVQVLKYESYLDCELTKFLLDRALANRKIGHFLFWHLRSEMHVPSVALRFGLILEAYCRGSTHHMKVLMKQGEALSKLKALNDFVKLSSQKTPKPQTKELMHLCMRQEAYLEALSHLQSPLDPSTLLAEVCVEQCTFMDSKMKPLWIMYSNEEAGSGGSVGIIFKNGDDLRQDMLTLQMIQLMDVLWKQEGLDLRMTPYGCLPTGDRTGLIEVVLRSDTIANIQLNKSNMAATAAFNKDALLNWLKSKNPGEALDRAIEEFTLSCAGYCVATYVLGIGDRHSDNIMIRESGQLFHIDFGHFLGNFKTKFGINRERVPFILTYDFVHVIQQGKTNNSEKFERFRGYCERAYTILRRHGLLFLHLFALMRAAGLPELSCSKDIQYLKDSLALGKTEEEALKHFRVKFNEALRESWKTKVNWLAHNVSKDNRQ

| Structure (SMILES) | IC50 [1] | IC50 [2] |
| --- | --- | --- |
| Cc1ccc(S(=O)(=O)NCCC(C)(C)O)cc1-c1cncc(-c2cn(C)nc2C)n1 [Example 3, 3-[6-(1,3-Dimethyl-1H-pyrazol-4-yl)-pyrazin-2-yl]-N-(3-hydroxy-3-methyl-butyl)-4-methyl-benzenesulfonamide] | 70 nM | 3850 nM |
| Cc1ncc(-c2cncc(-c3cc(S(=O)(=O)NCCCO)ccc3C)n2)s1 [Example 1, N-(3-Hydroxy-propyl)-4-methyl-3-[6-(2-methyl-thiazol-5-yl)-pyrazin-2-yl]-benzenesulfonamide] | 200 nM | 5250 nM |
| Cc1ccc(S(=O)(=O)NCC2(C)COC2)cc1-c1cncc(-c2cn(C)nc2C)n1 [Example 4, Trans 3-[6-(1,3-Dimethyl-1H-pyrazol-4-yl)-pyrazin-2-yl]-4-methyl-N-(3-methyl-oxetan-3-ylmethyl)-benzenesulfonamide] | 70 nM | 890 nM |
| Cc1ccc(S(=O)(=O)NCC(C)(C)O)cc1-c1cncc(-c2cn(C)nc2C)n1 [Example 2, 3-[6-(1,3-Dimethyl-1H-pyrazol-4-yl)-pyrazin-2-yl]-N-(2-hydroxy-2-methyl-propyl)-4-methyl-benzenesulfonamide] | 60 nM | 1180 nM |

Continued, values first:

| IC50 [1] | IC50 [2] | Structure (SMILES) |
| --- | --- | --- |
| 120 nM | 6240 nM | Cc1ccc(S(=O)(=O)N[C@H]2CC[C@H](O)CC2)cc1-c1cncc(-c2cccnc2)n1 [Example 11, Trans N-(4-Hydroxy-cyclohexyl)-4-methyl-3-(6-pyridin-3-yl-pyrazin-2-yl)-benzenesulfonamide] |
| 10 nM | > 9100 nM | Cc1ccc(S(=O)(=O)NCCC(C)(C)O)cc1-c1cncc(-c2cnn(CCN3CCOCC3)c2)n1 [Example 9, N-(3-Hydroxy-3-methyl-butyl)-4-methyl-3-{6-[1-(2-morpholin-4-yl-ethyl)-1H-pyrazol-4-yl]-pyrazin-2-yl}-benzenesulfonamide] |
| 20 nM | 9800 nM | Cc1ccc(S(=O)(=O)NCCC(C)(C)O)cc1-c1cncc(-c2cn(CCN3CCOCC3)nc2C)n1 [Example 10, N-(3-Hydroxy-3-methyl-butyl)-4-methyl-3-{6-[3-methyl-1-(2-morpholin-4-yl-ethyl)-1H-pyrazol-4-yl]-pyrazin-2-yl}-benzenesulfonamide] |
| 70 nM | 1950 nM | Cc1ccc(S(=O)(=O)NCC(C)(C)CO)cc1-c1cncc(-c2cn(C)nc2C)n1 [Example 8, 3-[6-(1,3-Dimethyl-1H-pyrazol-4-yl)-pyrazin-2-yl]-N-(3-hydroxy-2,2-dimethyl-propyl)-4-methyl-benzenesulfonamide] |
| 90 nM | 4770 nM | Cc1ncc(-c2cncc(-c3cc(S(=O)(=O)N[C@H]4CC[C@H](O)CC4)ccc3C)n2)s1 [Example 5, Trans N-(4-Hydroxycyclohexyl)-4-methyl-3-(6-(2-methylthiazol-5-yl)pyrazin-2-yl)benzenesulfonamide] |

Source: patent publication US9862711B2, “Pyrazine derivatives as phosphatidylinositol 3-kinase inhibitors” (NOVARTIS AG, priority 2014, dated 2018)
